In article PMC3920720, “Triterpenes and Steroids from Euphorbia denticulata Lam. With Anti-Herpes Symplex Virus Activity” (Iranian Journal of Pharmaceutical Research : IJPR, 2013):
Converted amounts (≈) assume the structure as drawn. Where two headings read alike, the source gives them in different places.

Experiments:
HSV-1 [1] = assay: Time-course anti-virus analysis (MTS, addition pre-, co- or post-infection); format: cell-based, Herpes simplex virus type 1 (HSV-1, strain KOS); details: post-infection; 1, 10, 100 μg/mL; added 1 h before to 24 h after infection; MTS after 3 days
Method: Different non-cytotoxic concentrations (≤ CC50 values) of test compounds were added to culture cells in triplicate at different times pre-infection or post-infection. HSV-1(10 TCID50 per well) was inoculated onto confluent monolayers of Vero cells for 2 h. After 3 days, MTS test and antiviral activity were carried out as previously described ([3]).
Inhibition was evaluated by MTS assay after 3 days of infection and expressed as percentage inhibition.
Figure 3 Inhibitory effect of test compounds at different concentrations (1, 10, 100 μg/mL) at various times pre-infection , co-infection and post-infection of herpesvirus (HSV-1) to Vero cells. a) betulin, and b) (3β,23E)-Cycloarta-23-ene-3,25-diol were added with the HSV-1 infected Vero cells at various times period like pre-infection (− 1 h), co-infection (0 h) or post-infection( 2-24 h). After 3 days of incubation at 37°C, inhibition was evaluated by MTS assay and expressed as the inhibition percentage. Each point represents the mean of three independent experiments

HSV-1 [2] = assay: Antiviral assay using MTS method (HSV-1 infected Vero cells); format: cell-based, Herpes simplex virus type 1 (HSV-1, strain KOS); details: for Selectivity index (SI) = CC50/EC50: HSV-1, CC50 on Vero cells / EC50; for EC50: read-out: EC50 ±SEM (concentration producing 50% inhibition of virus induced cytopathic effects)
[3] = Cytotoxicity assay (MTS) on Vero cells; format: cell-based, African green monkey; details: African green monkey
Method: (§1) For cytotoxicity and antiviral assays cells were grown in Dulbeccoʼs Modified Eagleʼs growth Medium ( DMEM; Sigma, USA) supplemented with 2% of fetal bovine serum (FBS; Gibco, Germany), 100 μg/mL of streptomycin, 100 UI/mL of penicillin and 0.25 μg/mL amphotericin B ( Gibco, Germany) and 0.14% (v/v) sodium bicarbonate. All the cells were cultured at 37°C in a humidified atmosphere supplied with 5% CO2.
(§2) The Vero cells were seeded onto a 96-well plate at a concentration of 3.5×10^5 Vero cells per mL and a volume of 100 μL per well. Following 24 h incubation at 37 °C, a confluent cell monolayer was confirmed and cell media was removed. Test compounds were serially diluted with the culture medium supplemented with 2% serum to reach the different concentrations. Negative control dilution of DMSO at 0.1 % was also included. An aliquot of 100 μL/well of each diluted compound or DMSO was added to the plates in triplicate. After incubation at 37 °C with 5% CO2 for 3 days, MTS (Cell Titer 96; Promega, USA) was added to each well with a volume of 20 μL. The trays were further incubated for 2 h to allow MTS production. The absorbances were determined with an ELISA reader (Stata Fax 2100, USA) at a test wavelength of 490 nm. Data were calculated as the percentage of inhibition using the following formula: inhibition % =[100 – ( At/ As) × 100]%. At and As refer to the absorbances of the test substances and the solvent control, respectively. CC50 values, defined as the concentration of 50% cellular cytotoxicity (CC50) of test compounds ([7], [8]).

Vero cells = assay: Cytotoxicity assay (MTS) on Vero cells; format: cell-based, African green monkey; details: Vero cells, MTS, 3 days incubation, n=3
Method: as §1, §2

[4] = Human alphaherpesvirus 1, Vero, 72 h
[5] = CC50 ±SEM (50% cytotoxic concentration on vero cells)

Structure (SMILES)	Time of compound addition giving the highest inhibition against HSV-1 infection (HSV-1 [1])	Selectivity index (SI) = CC50/EC50 (HSV-1 [2])	EC50 (HSV-1 [2]; [4])	CC50 at 3 days [3, 5]	EC50 (HSV-1 [2]; Human alphaherpesvirus 1, 72 h, HSV-1 in Vero cells, MTS, 3 days, three separate experiments)	Selectivity index (SI) = CC50/EC50 (HSV-1 [2]; listed as betulin)	CC50 at 3 days ([3]; Vero cells, MTS, 3 days incubation, n=3, read-out: CC50 ±SEM (50% cytotoxic concentration on vero cells))	CC50 ±SEM (50% cytotoxic concentration on vero cells) (Vero cells)
C[C@H](C/C=C/C(C)(C)O)[C@H]1CC[C@@]2(C)C3CCC4C(C)(C)[C@@H](O)CC[C@@]45C[C@@]35CC[C@]12C (stereo partly drawn) [(3β,23E)-Cycloarta-23-ene-3,25-diol, Cycloart-23E-ene-3β,25-diol]	≤ 2.0 h	12.57	86.63 ± 0.03 µg/mL (≈ 196 µM)	1089.2 ± 0.25 µg/mL (≈ 2460 µM)				
Nc1nc2c(ncn2COCCO)c(=O)[nH]1 [Acyclovir, reference compound]		42.66		128 ± 0.215 µg/mL (≈ 568 µM)	3 µg/mL (≈ 13.3 µM)			
C=C(C)[C@@H]1CC[C@]2(CO)CC[C@]3(C)[C@H](CC[C@@H]4[C@@]5(C)CC[C@H](O)C(C)(C)[C@@H]5CC[C@]43C)[C@@H]12 [Betulin, lup-20(29)-ene-3β,28-diol]	≤ 2.0 h	7.83	84.37 ± 0.018 µg/mL (≈ 191 µM)			7.831	660.72 ± 0.072 µg/mL (≈ 1490 µM)	660.72 ± 0.072 µg/mL (≈ 1490 µM)
